For test [1], the target named is Tyrosine-protein kinase Fyn (Homo sapiens) (UniProt P06241). Description: Inhibition of human FYN assessed as residual activity at 1 uM relative to control.
For test [2], the target named is T1, cGMP-dependent protein kinase 1 (Homo sapiens) (UniProt Q13976).
T1 sequence (whole entry): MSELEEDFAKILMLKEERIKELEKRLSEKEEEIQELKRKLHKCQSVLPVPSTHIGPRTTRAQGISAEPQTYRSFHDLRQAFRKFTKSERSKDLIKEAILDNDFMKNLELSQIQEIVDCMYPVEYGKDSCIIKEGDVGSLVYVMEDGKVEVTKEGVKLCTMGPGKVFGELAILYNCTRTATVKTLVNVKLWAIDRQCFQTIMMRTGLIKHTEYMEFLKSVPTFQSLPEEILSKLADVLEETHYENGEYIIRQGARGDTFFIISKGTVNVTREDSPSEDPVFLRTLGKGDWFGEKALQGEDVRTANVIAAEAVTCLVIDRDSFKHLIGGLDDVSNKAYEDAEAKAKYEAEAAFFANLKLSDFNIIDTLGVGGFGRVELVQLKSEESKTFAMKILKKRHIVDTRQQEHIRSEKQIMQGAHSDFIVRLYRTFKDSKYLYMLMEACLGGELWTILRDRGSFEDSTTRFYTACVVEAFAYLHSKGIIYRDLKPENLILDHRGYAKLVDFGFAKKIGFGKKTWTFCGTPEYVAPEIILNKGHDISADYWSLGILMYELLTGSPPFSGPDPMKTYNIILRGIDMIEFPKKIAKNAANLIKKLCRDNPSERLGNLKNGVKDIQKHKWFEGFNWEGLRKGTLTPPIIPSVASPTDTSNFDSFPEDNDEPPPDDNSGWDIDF
As to the kind of experiment: Inhibition of human PKG1alpha assessed as residual activity at 1 uM relative to control.

Test [3] addresses Protein-tyrosine kinase 6 (Homo sapiens) (UniProt Q13882). Description: Inhibition of human BRK assessed as residual activity at 1 uM relative to control.
Test [4] has as its target T2, Serine/threonine-protein kinase Chk1 (Homo sapiens) (UniProt O14757).
T2 sequence (whole entry): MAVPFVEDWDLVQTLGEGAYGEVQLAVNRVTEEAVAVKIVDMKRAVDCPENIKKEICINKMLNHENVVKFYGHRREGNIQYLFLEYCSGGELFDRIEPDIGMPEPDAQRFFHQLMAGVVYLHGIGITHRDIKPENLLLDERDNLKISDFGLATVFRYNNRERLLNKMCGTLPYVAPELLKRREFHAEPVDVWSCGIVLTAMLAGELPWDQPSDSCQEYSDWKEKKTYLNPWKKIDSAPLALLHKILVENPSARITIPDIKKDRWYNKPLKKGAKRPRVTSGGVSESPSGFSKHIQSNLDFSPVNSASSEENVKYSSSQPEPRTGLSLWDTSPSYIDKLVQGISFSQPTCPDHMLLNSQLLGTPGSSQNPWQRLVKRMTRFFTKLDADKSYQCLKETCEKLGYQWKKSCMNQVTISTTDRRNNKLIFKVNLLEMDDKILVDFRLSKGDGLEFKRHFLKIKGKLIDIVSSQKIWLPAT
As to the kind of experiment: Inhibition of human CHK1 assessed as residual activity at 1 uM relative to control.

Test [5] deals with Tyrosine-protein kinase ABL1 (Homo sapiens) (UniProt P00519). As to the kind of experiment: Inhibition of human ABL assessed as residual activity at 1 uM relative to control.
Test [6] deals with T3, Activin receptor type-1B (Homo sapiens) (UniProt P36896).
T3 sequence (whole entry): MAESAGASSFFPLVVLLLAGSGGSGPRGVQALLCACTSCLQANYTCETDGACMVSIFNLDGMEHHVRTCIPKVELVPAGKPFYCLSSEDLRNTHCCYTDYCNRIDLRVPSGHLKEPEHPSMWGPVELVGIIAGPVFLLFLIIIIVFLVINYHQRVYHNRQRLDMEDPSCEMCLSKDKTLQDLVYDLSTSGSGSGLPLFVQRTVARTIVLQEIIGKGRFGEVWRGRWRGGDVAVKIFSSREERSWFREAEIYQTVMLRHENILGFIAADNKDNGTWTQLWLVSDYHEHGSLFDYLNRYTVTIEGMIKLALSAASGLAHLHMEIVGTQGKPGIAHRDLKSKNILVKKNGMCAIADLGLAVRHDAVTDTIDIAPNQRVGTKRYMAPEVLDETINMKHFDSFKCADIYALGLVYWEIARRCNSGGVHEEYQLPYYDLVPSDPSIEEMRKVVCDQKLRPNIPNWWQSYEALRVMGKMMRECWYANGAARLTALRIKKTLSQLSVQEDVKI
Description: Inhibition of human ALK4 assessed as residual activity at 1 uM relative to control.

In test [7] the target is T4, Ephrin type-B receptor 1 (Homo sapiens) (UniProt P54762).
T4 sequence (whole entry): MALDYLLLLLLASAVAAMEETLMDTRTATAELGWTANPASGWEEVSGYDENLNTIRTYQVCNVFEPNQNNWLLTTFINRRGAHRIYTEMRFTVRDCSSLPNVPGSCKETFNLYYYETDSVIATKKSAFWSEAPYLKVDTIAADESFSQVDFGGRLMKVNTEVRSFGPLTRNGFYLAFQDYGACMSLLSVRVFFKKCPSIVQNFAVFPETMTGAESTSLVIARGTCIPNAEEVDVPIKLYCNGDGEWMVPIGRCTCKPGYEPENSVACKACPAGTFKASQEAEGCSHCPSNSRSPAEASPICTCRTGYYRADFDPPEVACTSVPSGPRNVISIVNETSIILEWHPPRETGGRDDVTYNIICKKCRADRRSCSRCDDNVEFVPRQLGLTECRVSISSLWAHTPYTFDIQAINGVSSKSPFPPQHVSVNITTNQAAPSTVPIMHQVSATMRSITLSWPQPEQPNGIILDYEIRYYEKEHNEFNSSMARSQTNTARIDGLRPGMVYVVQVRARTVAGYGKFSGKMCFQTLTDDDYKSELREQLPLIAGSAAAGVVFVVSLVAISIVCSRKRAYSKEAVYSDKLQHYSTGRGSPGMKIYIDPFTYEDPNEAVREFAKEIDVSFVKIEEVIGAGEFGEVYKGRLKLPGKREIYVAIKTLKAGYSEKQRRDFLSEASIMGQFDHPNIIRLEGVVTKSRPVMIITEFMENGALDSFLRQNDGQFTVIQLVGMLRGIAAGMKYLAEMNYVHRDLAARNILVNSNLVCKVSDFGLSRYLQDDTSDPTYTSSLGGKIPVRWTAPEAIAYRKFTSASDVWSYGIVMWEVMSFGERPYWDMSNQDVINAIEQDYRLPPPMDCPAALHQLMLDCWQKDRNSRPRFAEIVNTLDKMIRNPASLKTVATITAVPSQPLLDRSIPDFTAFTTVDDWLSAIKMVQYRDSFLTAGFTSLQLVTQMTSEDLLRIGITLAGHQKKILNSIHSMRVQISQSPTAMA
As to the kind of experiment: Inhibition of human EPHB1 assessed as residual activity at 1 uM relative to control.

SMILES strings stand for the structures.

Our source for the Activity values is ChEMBL document CHEMBL3124838, “Discovery of 6-aryl-azabenzimidazoles that inhibit the TBK1/IKK-ε kinases” (Bioorg Med Chem Lett, 2014).

Sequence of Tyrosine-protein kinase Fyn (Homo sapiens) (P06241 2-537 limits assumed): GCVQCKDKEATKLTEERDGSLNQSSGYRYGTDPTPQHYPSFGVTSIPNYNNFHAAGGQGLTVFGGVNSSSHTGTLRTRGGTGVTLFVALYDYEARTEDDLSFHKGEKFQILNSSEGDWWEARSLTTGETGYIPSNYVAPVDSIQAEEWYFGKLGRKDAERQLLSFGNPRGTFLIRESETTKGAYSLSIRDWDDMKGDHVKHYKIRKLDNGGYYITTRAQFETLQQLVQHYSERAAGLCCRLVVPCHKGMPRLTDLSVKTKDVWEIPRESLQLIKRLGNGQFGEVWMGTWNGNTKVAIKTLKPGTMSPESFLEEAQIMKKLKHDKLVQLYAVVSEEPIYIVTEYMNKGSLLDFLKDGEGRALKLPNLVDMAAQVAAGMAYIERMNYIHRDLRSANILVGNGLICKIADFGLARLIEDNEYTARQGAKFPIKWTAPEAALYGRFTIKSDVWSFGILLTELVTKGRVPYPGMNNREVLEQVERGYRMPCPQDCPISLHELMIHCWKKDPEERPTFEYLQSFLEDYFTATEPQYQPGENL
Sequence of Protein-tyrosine kinase 6 (Homo sapiens) (Q13882 whole entry, looked up): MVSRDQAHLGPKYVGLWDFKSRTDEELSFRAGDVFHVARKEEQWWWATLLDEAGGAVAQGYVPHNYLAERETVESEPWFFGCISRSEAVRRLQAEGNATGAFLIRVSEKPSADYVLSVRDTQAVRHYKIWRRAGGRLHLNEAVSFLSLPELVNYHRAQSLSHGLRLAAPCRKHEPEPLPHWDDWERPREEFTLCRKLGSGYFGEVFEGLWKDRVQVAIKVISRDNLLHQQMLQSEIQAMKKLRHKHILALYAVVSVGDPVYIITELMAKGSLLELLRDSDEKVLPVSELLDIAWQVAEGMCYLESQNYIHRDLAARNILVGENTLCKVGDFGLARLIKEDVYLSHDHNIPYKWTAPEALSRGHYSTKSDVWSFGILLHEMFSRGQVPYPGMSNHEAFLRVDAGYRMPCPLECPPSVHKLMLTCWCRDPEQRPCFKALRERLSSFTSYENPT
Sequence of Tyrosine-protein kinase ABL1 (Homo sapiens) (P00519 whole entry): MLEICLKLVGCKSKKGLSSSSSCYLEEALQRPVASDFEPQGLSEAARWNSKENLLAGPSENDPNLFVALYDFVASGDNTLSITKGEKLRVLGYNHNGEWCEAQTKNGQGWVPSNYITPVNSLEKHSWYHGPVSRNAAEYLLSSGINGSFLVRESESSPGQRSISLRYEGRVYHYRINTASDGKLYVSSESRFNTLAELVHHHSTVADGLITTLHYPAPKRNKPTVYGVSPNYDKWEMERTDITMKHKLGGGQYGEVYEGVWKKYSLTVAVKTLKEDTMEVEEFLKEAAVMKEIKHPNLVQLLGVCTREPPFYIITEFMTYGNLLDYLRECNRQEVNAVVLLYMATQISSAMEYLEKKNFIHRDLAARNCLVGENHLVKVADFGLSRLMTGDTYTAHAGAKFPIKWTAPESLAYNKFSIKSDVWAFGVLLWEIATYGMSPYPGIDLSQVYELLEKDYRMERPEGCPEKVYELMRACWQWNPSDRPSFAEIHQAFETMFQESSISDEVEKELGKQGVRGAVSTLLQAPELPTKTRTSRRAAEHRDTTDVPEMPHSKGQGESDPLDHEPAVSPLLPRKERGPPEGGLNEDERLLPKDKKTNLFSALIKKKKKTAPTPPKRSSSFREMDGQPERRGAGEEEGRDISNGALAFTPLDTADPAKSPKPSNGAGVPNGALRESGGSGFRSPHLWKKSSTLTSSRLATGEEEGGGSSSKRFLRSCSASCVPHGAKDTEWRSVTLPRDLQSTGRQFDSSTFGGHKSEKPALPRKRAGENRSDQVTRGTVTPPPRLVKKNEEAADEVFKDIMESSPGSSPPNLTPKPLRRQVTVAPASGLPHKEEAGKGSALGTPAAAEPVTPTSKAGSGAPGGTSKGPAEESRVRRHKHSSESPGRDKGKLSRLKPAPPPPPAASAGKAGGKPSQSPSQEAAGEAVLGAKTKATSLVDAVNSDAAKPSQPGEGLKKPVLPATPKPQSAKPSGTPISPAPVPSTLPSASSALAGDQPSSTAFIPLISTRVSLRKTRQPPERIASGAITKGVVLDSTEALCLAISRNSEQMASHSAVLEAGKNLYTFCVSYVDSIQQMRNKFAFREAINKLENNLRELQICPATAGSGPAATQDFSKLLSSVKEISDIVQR

Turning to `COc1ccc(-c2nc3cc(-c4csc(C(=O)NCC(C)(C)C)c4)cnc3[nH]2)cc1`, the Activity in test [1] was 67%; in test [2] it was 68%; in test [3], 102%; in test [4] it was 103%; in test [5] it was 8%; in test [6], 85%. Besides, the Activity in test [7] came to 74%.
Consider `COc1ccc(-c2nc3cc(-c4csc(C(=O)NCCC(C)C)c4)cnc3[nH]2)cc1`, for which the Activity in test [1] came out at 33%; in test [2] it was 67%; in test [3], 112%; in test [4], 90%; in test [5], 10%; in test [6] it was 85%. Moreover, the Activity in test [7] came out at 76%.
In the case of `COc1ccc(-c2nc3cc(-c4csc(C(=O)NCC(C)C)c4)cnc3[nH]2)cc1`, the Activity in test [1] was 34%; in test [2] it was 69%; in test [3], 110%; in test [4] it was 99%; in test [5] it was -2%; in test [6] it was 96%. Moreover, in test [7], the Activity came out at 72%.
